# Patent US5773236A, “Assay for glutathiane transferase using polyhaloaryl-substituted reporter molecules” (Molecule Probes, Inc., priority 1997, dated 1998)
# Structures can show the parent of a compound that is named as a salt.
# Experiments:
# CRE BAG 2 cells = test: Peptidase substrates in live cells, fluorescence microscopy (Example 59); format: cell-based; settings: 1 μM, 0.5 μM or 0.1 μM, 37° C., 30 minutes
# Method: CRE BAG 2 cells obtained from American Type Culture Collection Co., Rockville, Md. are used. They are grown in a humidified atmosphere of 5% CO2 in D-MEM supplemented with 10% calf serum, 50 μg/mL gentamycin, 300 μg/mL L-glutamine and 10 mM HEPES, pH 7.4. 1 mM stock solutions of Compound 13-Leu (Example 13) and Compound 13-Arg substrate are prepared in DMSO. CRE BAG 2 cells are trypsinized, washed with phosphate-buffered saline, pH 7.2 and resuspended in 1 mL of the same buffer. 1 μL, 0.5 μL or 0.1 μL of the stock reagents is added to 1 mL of the cell suspension to obtain a final concentration of 1 μM, 0.5 μM or 0.1 μM. Incubation is carried out at 37° C. for 30 minutes. Cells are centrifuged to form a pellet, the supernatant is discarded and the cells are washed with PBS, pH 7.2 and suspended in the same buffer. Cells are mounted on slides and observed by fluorescence microscopy using filters optimized for fluorescein.
# [1] = test system: glutathione transferase (GST); test: Reactivity with glutathione catalyzed by glutathione transferase, TLC (Example 50); format: biochemical
# Method: The suitability of Compound 1 (Example 1) and 5-(pentachlorobenzoylamino)fluorescein (Compound 48) as substrates for glutathione transferase (GST) in the presence of excess glutathione (GSH) is tested in vitro as follows: 5 mM GSH, 0.5 mM substrate (Compound 1 or Compound 48) and 20 micrograms GST (Sigma #G-6511, 70 units/mg) are combined in 0.1M phosphate buffer, pH 8.0, for 1 hour at 37° C. The reaction is terminated by spotting approximately 3 μL on silica gel TLC plates. The plate is developed using 1-butanol: methanol: water (3:1:1). […] Analysis of the reaction mixture by HPLC as in Example 52 confirms that the reaction product of Compound 1 with GSH is identical to the authentic Compound 1-GSH adduct as prepared in Example 45 (Compound 45).
# NIH-3T3 cells = test: Hydrolysis of esterase substrates and product retention in live cells, flow cytometry (Example 65); format: cell-based
# Method: NIH-3T3 cells obtained from American Type Culture Collection Co., Rockville, Md. are used. They are grown in a humidified atmosphere of 5% CO2 in D-MEM supplemented with 10% bovine calf serum (BCS), 50 μg/mL gentamycin, 300 μg/mL L-glutamine and 10 mM HEPES, pH 7.4. Stock solutions of Compound 4 (Example 3), 10 mM in DMSO, and Compound 48 (Example 50), 5 mM in DMSO, are prepared. NIH-3T3 cells are trypsinized, washed with phosphate-buffered saline (PBS), pH 7.2 and resuspended in D-MEM with 10% BCS. To 1 mL of the cell suspension is added the dye stock solution to obtain a final dye concentration of 0.1 mM. Incubation is carried out at 37° C. for 30 minutes followed by incubation on ice for 30 minutes. Cells are centrifuged to form a pellet, the supernatant is discarded and the cells are washed twice with PBS, pH 7.2 and suspended in the same buffer. Cells are analyzed by flow cytometry using the Becton-Dickinson FACS Vantage flow cytometer. After analysis on the flow cytometer, cells are placed at 37° C. and analyzed by flow cytometry at frequent intervals over a period of 75 minutes. Cells stained with either of the dyes are at least 20-fold brighter than the autofluorescent control cells. Approximately 45% of Compound 4 and 35% of Compound 48 are still retained by the cells after 75 minutes of incubation at 37° C.
# 3T3 or BPAE cells [2] = test: Intracellular products of tracers by TLC and HPLC (Example 67); format: cell-based; settings: 5 μM, 1 hr, 37° C.
# Method: Reaction mixtures with and without GST using Compound 1 as the substrate, are prepared as described in Example 48. The solutions are mixed overnight with three volumes of ethyl acetate followed by centrifugation at 15,000×g for 30 min to separate the organic and aqueous layers. HPLC analysis using a Rainin HPLC equipped with a C18, 5 μm, 100 Å, 4.6×250 mm MICROSORB-MV reverse phase column. Products are separated in 30 min with a gradient of 5% to 95% solvent B in Solvent A at a flow rate of 1 mL/min, where solvent A is 0.1M triethylammonium acetate, pH 7.0, and solvent B is acetonitrile (see FIG. 1). Products are detected by reading the absorbance at 500 nm. Peaks are identified and, if desired, quantitated by comparing retention times with authentic samples of the glutathione adduct of Compound 45 (Example 45).
# (§1) Cultures of either 3T3 or BPAE cells are treated with 5 μM solutions of either Compound 4,5-(pentachlorobenzoylamino)fluorescein diacetate, 5-pentafluorobenzenesulfonylamino)fluorescein diacetate, or 5-chloromethylfluorescein diacetate (CMFDA, Molecular Probes, Inc.) for 1 hr at 37° C. The cells are spun, resuspended in distilled water and lysed by repeated freezing and thawing. 20 μL of the cell lysate supernatant is diluted with 30 μL of SDS-PAGE sample buffer, containing β-mercaptoethanol. The cell pellets are dispersed in 50 μL of water. 20 μL of each sample is added to 30 μL of the same sample buffer. The samples are heated at 95° C. for 5 min. and loaded on 4-20% polyacrylamide gradient minigels. At the completion of the run the gels are observed with UV excitation.
# Alternatively, the above samples are analyzed by TLC and by HPLC, as described in Examples 48 and 52. […] Coinjection with authentic Compound 1 confirms the identity of the substrate peak and coinjection with the authentic Compound 1-GSH adduct (Example 45) confirms the identify of the other fluorescent product.
# 3T3 or BPAE cells [3] = test: Intracellular products of tracers by gel electrophoresis (Example 67); format: cell-based; settings: 5 μM, 1 hr, 37° C.
# Method: as §1
# alkaline phosphatase = test: Detection of alkaline phosphatase on a membrane blot (Example 63); format: biochemical; settings: nitrocellulose; for amount of enzyme detected, before washing: 35 minutes, 37° C., prior to washing the membranes
# Method: The reagents used are: 1) 5-(pentafluorobenzoylamino)fluorescein diphosphate, tetraammonium salt (Compound 47; Example 47), 10 mM in 0.1M Tris, pH 8.5; 2) fluorescein diphosphate (FDP; Molecular Probes, #F-2999), 10 mM in 0.1M Tris, pH 8.5; 3) BLOCKER Blotto in PBS (Pierce Chemical Company); 4) 0.2M glycine, pH 8.8; 5) 0.05M MgCl2, 6) 0.1M Tris, pH 8.5; 7) wash buffer: 20 mM Tris, 137 mM NaCl, 0.5% TWEEN 20, pH 7.5. Stock solutions of alkaline phosphatase are diluted in 0.1M Tris, pH 8.5 to obtain solutions with the following concentrations: 1 μg/μL, 0.5 μg/μL, 0.25 μg/μL, 0.1 μg/μL, 50 ng/μL, 10 ng/μL, 1 ng/μL and 0 ng/μL. 1 μL of each diluted solution is spotted on a nitrocellulose membrane (1"×1"), pore size 0.45 μM, and allowed to dry overnight at room temperature. Blocking is done by treating both nitrocellulose blots with 2 mL of supernatant liquid from the BLOCKER Blotto solution for 30 minutes at room temperature. The following mixture is prepared: 1.5 mL of 0.2M glycine, pH 8.8+0.4 mL of 0.05M MgCl2 +100 μL of 0.1M Tris, pH 8.5+10 μL of 10 mM substrate stock solution (either PFB-FDP or FDP). Blotto supernatant on the blots is replaced with the above mixture and incubation is carried out for 35 minutes at 37° C. A Polaroid image of the blots is obtained by illuminating with reflected UV light at 254 nm. Exposure time is 5-10 sec with an aperture setting of F=4.5 and filter #15 is used to block unwanted light. Both Compound 47 and FDP can detect ~50 ng of the enzyme prior to washing the membranes. The blots are washed twice for 5 minutes each time with 2 mL of wash buffer and an image is obtained using the same settings and exposure times as described above.
# [4] = test system: glutathione S-transferase; test: Other derivatives tested as GSH/GST substrates, TLC (Example 54); format: biochemical; settings: 0.2-0.5 mM compound in 50 mM MOPS, pH 7.5, TLC
# Method: The reaction is then stopped by adding 10% H2 O2.
# The PHA compound (ethanol stock solution, 2 mM) and reduced glutathione (phosphate buffer stock solution, 5 mM) are incubated under the same conditions as described above without addition of glutathione S-transferase.
# Commercial precast silica gel TLC plates are used to follow both the enzymatic reaction and the blank control reaction. […] UV absorbance by the PHA substituent always permits detection of both the compound and any glutathione adduct by fluorescence quenching when the TLC sheet is illuminated with 254-nm radiation. Fluorescent compounds can be directly detected using appropriate UV or visible illumination. […] Furthermore, the intensity of the signal on the TLC sheet often can be enhanced by methods well known in the art, such as by application of a phosphomolybdate spray, iodine vapors or a similar detection reagent. Radioactive products can be directly detected and quantitated by exposure to a suitable film using methods well known in the art.
structure (smiles),measurement,setting,value
"CC(C)C[C@H](N)C(=O)Nc1ccc2c(c1)Oc1cc(NC(=O)c3c(F)c(F)c(F)c(F)c3F)ccc1C21OC(=O)c2ccccc21 (stereo partly drawn) [Compound 13-Leu, Rhodamine 110, pentafluorobenzoyl amide, L-leucine amide, hydrochloride]","staining of cells, fluorescence microscopy",CRE BAG 2 cells,punctate green fluorescence associated with organelles
"O=C1OC2(c3ccc(O)cc3Oc3cc(O)ccc32)c2ccc(NC(=O)c3c(Cl)c(Cl)c(Cl)c(Cl)c3Cl)cc21 [Compound 48, 5-(pentachlorobenzoylamino)fluorescein]",adduct formation with glutathione in presence of GST,"[1]; 5 mM GSH, 0.5 mM substrate, 20 micrograms GST, pH 8.0, 1 hour, 37° C.",does not form a new adduct
same,reaction in control without GST,[1]; GST omitted,very low or no reaction
same,brightness versus autofluorescent control cells,"NIH-3T3 cells; 0.1 mM dye, 37° C., 30 minutes then on ice 30 minutes",at least 20 fold
same,dye retained by the cells,NIH-3T3 cells; after 75 minutes of incubation at 37° C.,~35%
"CC(=O)Oc1ccc2c(c1)Oc1cc(OC(C)=O)ccc1C21OC(=O)c2cc(CCl)ccc21 [CMFDA, 5-chloromethylfluorescein diacetate, reference compound]",products by HPLC,3T3 or BPAE cells [2]; HPLC,the glutathione adduct and additional small peaks
same,products by TLC,3T3 or BPAE cells [2],multiple TLC bands
same,protein adduct bands on gel,3T3 or BPAE cells [3],multiple fluorescent bands
CC(=O)Oc1ccc2c(c1)Oc1cc(OC(C)=O)ccc1C21OC(=O)c2cc(NS(=O)(=O)c3c(F)c(F)c(F)c(F)c3F)ccc21 [5-pentafluorobenzenesulfonylamino)fluorescein diacetate],products by TLC,3T3 or BPAE cells [2],formation of a GSH adduct
same,fluorescent bands on gel (region of the tracking dye),3T3 or BPAE cells [3],Two closely spaced green fluorescent bands
same,protein adduct bands on gel,3T3 or BPAE cells [3],No other band corresponding to proteins is visible
"O=C1OC2(c3ccc(OP(=O)(O)O)cc3Oc3cc(OP(=O)(O)O)ccc32)c2ccc(NC(=O)c3c(F)c(F)c(F)c(F)c3F)cc21 [Compound 47, 5-(pentafluorobenzoylamino)fluorescein diphosphate, tetraammonium salt]","amount of enzyme detected, before washing",alkaline phosphatase,~ 50 ng
same,"amount of enzyme detected, after washing","alkaline phosphatase; washed twice for 5 minutes, per spot",~ 50 ng
"O=C1OC2(c3ccc(OP(=O)(O)O)cc3Oc3cc(OP(=O)(O)O)ccc32)c2ccccc21 [FDP, fluorescein diphosphate, reference compound]","amount of enzyme detected, before washing",alkaline phosphatase,~ 50 ng
same,detection of enzyme after washing,alkaline phosphatase; washed twice for 5 minutes,unable to detect the presence of any enzyme
CC(=O)Oc1ccc2c(c1)Oc1cc(OC(C)=O)ccc1C21OC(=O)c2cc(NC(=O)c3c(Cl)c(Cl)c(Cl)c(Cl)c3Cl)ccc21 [5-(pentachlorobenzoylamino)fluorescein diacetate],products by TLC,3T3 or BPAE cells [2],"Only a single, fast-moving fluorescent band corresponding to authentic 5-(pentachlorobenzoylamino)fluorescein"
same,fluorescent bands on gel (region of the tracking dye),3T3 or BPAE cells [3],a single band in the region of the tracking dye
same,protein adduct bands on gel,3T3 or BPAE cells [3],do not shown a protein adduct
"O=c1cc(-c2c(F)c(F)c(F)c(F)c2F)c2ccc(O)cc2o1 [Compound 44, 7-hydroxy-4-pentafluorophenylcoumarin]",glutathione adducts detected,[4],detectable glutathione adducts
O=C(c1c(F)c(F)c(F)c(F)c1F)N1CCN(C(=O)c2c3oc4cc(O)c(Cl)cc4nc-3ccc2=O)CC1 [Compound 17],glutathione adducts detected,[4],detectable glutathione adducts
